pKd: −log10 of the molar value. Peptide text beside a SMILES is read from it. Where only a bound is given, the exact number is not on record here.

Holding throughout (assay): Fluorescence polarization SH3 domain-PRP binding
One assay concerns the target T1, NPHP1 SH3 domain (Homo sapiens, UniProt O15259).
T1 construct: GST (N); made in house; host or cells: Escherichia coli CodonPlus, Rosetta, BL21(DE3)
T1 sequence (O15259 152-212 limits assumed): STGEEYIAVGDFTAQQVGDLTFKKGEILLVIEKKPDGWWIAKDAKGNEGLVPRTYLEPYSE
To be noted: FP, 0.2 µM fluorescein-labeled peptide, SH3 domain 0-200 µM, Tris/HCl pH 7.5, 25 °C, quadratic fit. How it is done:
(§1) The interaction between fluorescein-labeled proline-rich peptides (0.2 µM) and increasing concentrations of SH3 domains (ranging from 0 to 200 µM) was measured in a buffer (containing 30 mM Tris/HCl (pH 7.5), 5 mM MgCl2, and 3 mM DTT at 25 °C) in a total volume of 200 µL using a Fluoromax 4 fluorimeter in polarization mode and a quartz glass fluorescence cuvette (Hellma Ultra-Micro Cuvette 105.250-QS, Thermo Fisher Scientific, Waltham, MA USA). Excitation was performed at 470 nm and emission was measured at 560 nm. Dissociation constants (Kd) were determined by fitting the concentration-dependent binding curve to a quadratic ligand binding equation.
(§2) Fluorescence polarization measurements were performed to determine the binding affinities of SH3 domain–PRP interaction pairs from the dot blot analysis. SH3 proteins were titrated at increasing concentrations against fluorescent PRPs, which were kept at a constant concentration of 0.2 µM. GRB2-2^W193K, which is defective in the binding of PRPs such as RP1, was used as a negative control as previously described. […] The resulting data (Figure S6) allowed the evaluation of equilibrium dissociation constants (Kd) for 45 interactions between the SH3 domains and the PRPs (Figure 2B; Table S6).
(§3) Figure S6. Interactions of the SH3 domains with fluorescent PRPs measured by fluorescence polarization.
(§4) Fluorescent peptides (0.2 µM) were titrated with increasing concentrations of the corresponding SH3 domains.
(§5) GRB2-2W193K, defective in the binding of PRPs such as RP1, was used as a negative control as previously described. The x-axis represents SH3 domain concentrations as GST fusion proteins in µM, while the y-axis represents fluorescence polarization. The equilibrium dissociation constants (Kd) for the respective measurements were determined by fitting the titration curves to a quadratic ligand-binding equation (solid lines). All Kd values are […]
(§6) Error bars are derived from the fitting errors.

Assay [1] deals with T2, RIMBP3B-1 SH3 domain (aa 832-899) (Homo sapiens, UniProt A6NNM3).
T2 construct: 832-899; GST (N); made in house; host or cells: Escherichia coli CodonPlus, Rosetta, BL21(DE3)
T2 sequence (A6NNM3 832-899): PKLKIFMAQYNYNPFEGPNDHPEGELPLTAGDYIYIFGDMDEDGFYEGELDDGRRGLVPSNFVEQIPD
Conditions: FP, 0.2 µM fluorescein-labeled peptide, SH3 domain 0-200 µM, Tris/HCl pH 7.5, 25 °C, quadratic fit. The procedure: as §1, §2, §3, §4, §5, §6

Assay [2] has as its target T3, SNX9 SH3 domain (aa 1-62) (Homo sapiens, UniProt Q9Y5X1).
T3 construct: 1-62; GST (N); made in house; host or cells: Escherichia coli CodonPlus, Rosetta, BL21(DE3)
Conditions: FP, 0.2 µM fluorescein-labeled peptide, SH3 domain 0-200 µM, Tris/HCl pH 7.5, 25 °C, quadratic fit. The procedure: as §1, §2, §3, §4, §5, §6

Assay [3] addresses T4, ITSN1-5 SH3 domain (aa 1155-1214) (Homo sapiens, UniProt Q15811).
T4 construct: 1155-1214; GST (N); made in house; host or cells: Escherichia coli CodonPlus, Rosetta, BL21(DE3)
T4 sequence (Q15811 1155-1214): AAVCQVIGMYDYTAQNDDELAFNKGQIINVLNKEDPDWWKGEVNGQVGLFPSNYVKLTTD
To be noted: FP, 0.2 µM fluorescein-labeled peptide, SH3 domain 0-200 µM, Tris/HCl pH 7.5, 25 °C, quadratic fit. The procedure:
as §1, §2, §3, §4, §5, §6

The target in assay [4] is T5, SORBS1-1 SH3 domain (aa 793-852) (Homo sapiens, UniProt Q9BX66).
T5 construct: 793-852; GST (N); made in house; host or cells: Escherichia coli CodonPlus, Rosetta, BL21(DE3)
T5 sequence (Q9BX66 793-852): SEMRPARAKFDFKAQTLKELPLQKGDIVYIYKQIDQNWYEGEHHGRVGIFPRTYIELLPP
Conditions: FP, 0.2 µM fluorescein-labeled peptide, SH3 domain 0-200 µM, Tris/HCl pH 7.5, 25 °C, quadratic fit. The procedure: as §1, §2, §3, §4, §5, §6

The target of assay [5] is T6, NCK1-1 SH3 domain (aa 2-61) (Homo sapiens, UniProt P16333).
T6 construct: 2-61; GST (N); made in house; host or cells: Escherichia coli CodonPlus, Rosetta, BL21(DE3)
Conditions: FP, 0.2 µM fluorescein-labeled peptide, SH3 domain 0-200 µM, Tris/HCl pH 7.5, 25 °C, quadratic fit, read-out: Kd. How it is done:
as §1, §2, §3, §4, §5, §6

The target of assay [6] is T7, SH3GLB1 SH3 domain (aa 305-365) (Homo sapiens, UniProt Q9Y371).
T7 construct: 305-365; GST (N); made in house; host or cells: Escherichia coli CodonPlus, Rosetta, BL21(DE3)
T7 sequence (Q9Y371 305-365): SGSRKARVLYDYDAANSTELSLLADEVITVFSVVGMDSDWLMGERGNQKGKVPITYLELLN
Conditions: FP, 0.2 µM fluorescein-labeled peptide, SH3 domain 0-200 µM, Tris/HCl pH 7.5, 25 °C, quadratic fit. The procedure:
as §1, §2, §3, §4, §5, §6

For assay [7], the target named is T8, NCK1-2 SH3 domain (aa 106-165) (Homo sapiens, UniProt P16333).
T8 construct: 106-165; GST (N); made in house; host or cells: Escherichia coli CodonPlus, Rosetta, BL21(DE3)
To be noted: FP, 0.2 µM fluorescein-labeled peptide, SH3 domain 0-200 µM, Tris/HCl pH 7.5, 25 °C, quadratic fit, read-out: Kd. How it is done:
as §1, §2, §3, §4, §5, §6

Assay [8] deals with T9, NCK1-3 SH3 domain (aa 190–252) (Homo sapiens, UniProt P16333).
T9 construct: 190–252; GST (N); made in house; host or cells: Escherichia coli CodonPlus, Rosetta, BL21(DE3)
To be noted: NCK1-3 (wt); FP, 0.2 µM fluorescein-labeled peptide, SH3 domain 0-200 µM, Tris/HCl pH 7.5, 25 °C, quadratic fit; read-out: Kd. The procedure: as §1, §2, §3, §4, §5, §6

Assay [9] has as its target T10, SRC SH3 domain (aa 77-140) (Homo sapiens, UniProt P12931).
T10 construct: 77-140; GST (N); made in house; host or cells: Escherichia coli CodonPlus, Rosetta, BL21(DE3)
Conditions: FP, 0.2 µM fluorescein-labeled peptide, SH3 domain 0-200 µM, Tris/HCl pH 7.5, 25 °C, quadratic fit. How it is done: as §1, §2, §3, §4, §5, §6

The target of assay [10] is T11, ITSN1-4 SH3 domain (aa 1070-1138) (Homo sapiens, UniProt Q15811).
T11 construct: 1070-1138; GST (N); made in house; host or cells: Escherichia coli CodonPlus, Rosetta, BL21(DE3)
T11 sequence (Q15811 1070-1138): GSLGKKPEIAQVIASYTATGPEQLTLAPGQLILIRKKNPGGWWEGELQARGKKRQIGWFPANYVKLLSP
To be noted: FP, 0.2 µM fluorescein-labeled peptide, SH3 domain 0-200 µM, Tris/HCl pH 7.5, 25 °C, quadratic fit. The procedure:
as §1, §2, §3, §4, §5, §6

In assay [11] the target is T12, RASA1 SH3 domain (aa 279–341) (Homo sapiens, UniProt P20936).
T12 construct: 279–341; GST (N); made in house; host or cells: Escherichia coli CodonPlus, Rosetta, BL21(DE3)
T12 sequence (P20936 279-341): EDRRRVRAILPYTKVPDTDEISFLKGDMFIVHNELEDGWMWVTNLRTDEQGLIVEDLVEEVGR
Conditions: FP, 0.2 µM fluorescein-labeled peptide, SH3 domain 0-200 µM, Tris/HCl pH 7.5, 25 °C, quadratic fit. The procedure: as §1, §2, §3, §4, §5, §6

T10 sequence (P12931 77-140 limits assumed): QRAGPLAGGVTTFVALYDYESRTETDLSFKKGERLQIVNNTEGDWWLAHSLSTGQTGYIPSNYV
T3 sequence (Q9Y5X1 1-62): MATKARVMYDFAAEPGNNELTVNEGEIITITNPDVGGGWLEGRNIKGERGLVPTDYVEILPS

As to `CC[C@H](C)[C@H](NC(=O)[C@H](C)NC(=O)[C@@H]1CCCN1C(=O)[C@@H]1CCCN1C(=O)[C@H](CO)NC(=O)[C@H](CC(=O)O)NC(=O)[C@@H](N)CC(C)C)C(=O)N1CCC[C@H]1C(=O)N1CCC[C@H]1C(=O)N[C@@H](CCCNC(=N)N)C(=O)N[C@@H](CCC(N)=O)C(=O)N1CCC[C@H]1C(=O)N[C@H](C(=O)N[C@@H](CO)C(=O)N[C@@H](CCCCN)C(=O)O)[C@@H](C)O` [Peptide P4] (H-LDSPPAIPPRQPTSK-OH), the pKd on NPHP1 SH3 domain is < 3.70; in assay [1], < 3.70; in [2] it was < 3.70; in assay [3] it was 4.92; in [4], < 3.70; in assay [5] it was < 3.70. The pKd in assay [6], in assay [7], in [8], in assay [9], in assay [10] and in assay [11] was < 3.70 in each case.

Turning to `CC(C)C[C@H](NC(=O)[C@@H]1CCCN1C(=O)[C@@H](NC(=O)[C@H](CCCNC(=N)N)NC(=O)[C@@H]1CCCN1C(=O)[C@H](CO)NC(=O)[C@H](CC(N)=O)NC(=O)[C@@H]1CCCN1C(=O)[C@H](C)NC(=O)[C@@H](N)CO)[C@@H](C)O)C(=O)N[C@H](C(=O)N1CCC[C@H]1C(=O)N1CCC[C@H]1C(=O)N1CCC[C@H]1C(=O)N[C@@H](C)C(=O)N[C@@H](CO)C(=O)O)[C@@H](C)O` [Peptide P1] (H-SAPNSPRTPLTPPPAS-OH), the pKd at NPHP1 SH3 domain was < 3.70; in assay [1], < 3.70; in assay [2] it was < 3.70; in assay [3] it was 4.64; in assay [4] it was < 3.70; in [5], < 3.70. Besides, the pKd in assay [6], in [7], in assay [8], in [9], in assay [10] and in [11] was < 3.70 in each case.

For `CC[C@H](C)[C@H](NC(=O)[C@H](Cc1c[nH]cn1)NC(=O)[C@@H](N)CCC(N)=O)C(=O)N1CCC[C@H]1C(=O)N[C@@H](CCCCN)C(=O)N[C@@H](CC(C)C)C(=O)N1CCC[C@H]1C(=O)N1CCC[C@H]1C(=O)N[C@@H](CCCCN)C(=O)N[C@H](C(=O)N[C@@H](Cc1ccc(O)cc1)C(=O)O)[C@@H](C)O` [Peptide P10] (H-QHIPKLPPKTY-OH; N-terminus and C-terminus assumed), the pKd (at NPHP1 SH3 domain; in assay [1]; in assay [2]; in [3]; in [4]; in assay [5]) was < 3.70 throughout. Besides, the pKd in [6], in [7], in assay [8], in [9], in [10] and in assay [11] was < 3.70 each time.

Turning to `CC[C@H](C)[C@H](N)C(=O)N[C@@H](CO)C(=O)N[C@@H](CC(=O)O)C(=O)N1CCC[C@H]1C(=O)N1CCC[C@H]1C(=O)N[C@@H](CCC(=O)O)C(=O)N[C@@H](CO)C(=O)N1CCC[C@H]1C(=O)N1CCC[C@H]1C(=O)N[C@@H](CC(C)C)C(=O)N[C@@H](CC(C)C)C(=O)N1CCC[C@H]1C(=O)N1CCC[C@H]1C(=O)N[C@@H](CCCNC(=N)N)C(=O)N[C@@H](CCC(=O)O)C(=O)N1CCC[C@H]1C(=O)N[C@H](C(=O)N[C@@H](CCCNC(=N)N)C(=O)N[C@H](C(=O)N1CCC[C@H]1C(=O)N[C@@H](CC(=O)O)C(=O)N[C@H](C(=O)O)C(C)C)[C@@H](C)O)C(C)C` [Peptide P5] (H-ISDPPESPPLLPPREPVRTPDV-OH), the pKd (at NPHP1 SH3 domain; in assay [1]; in assay [2]; in [3]; in assay [4]; in assay [5]) was < 3.70 throughout. In addition, the pKd in assay [6], in [7], in assay [8], in [9], in [10] and in assay [11] was < 3.70 throughout.

With `CC(C)C[C@H](NC(=O)[C@H](Cc1c[nH]cn1)NC(=O)[C@H](CC(C)C)NC(=O)[C@@H]1CCCN1C(=O)[C@H](CO)NC(=O)[C@H](CO)NC(=O)[C@@H](N)CO)C(=O)N[C@@H](CCC(N)=O)C(=O)N1CCC[C@H]1C(=O)N1CCC[C@H]1C(=O)N1CCC[C@H]1C(=O)N[C@@H](CC(C)C)C(=O)NCC(=O)N[C@@H](CCCCN)C(=O)N[C@@H](CCCCN)C(=O)O` [Peptide P6] (H-SSSPLHLQPPPLGKK-OH; N-terminus and C-terminus assumed), the pKd (at NPHP1 SH3 domain; in assay [1]; in assay [2]; in assay [3]; in assay [4]; in [5]) was < 3.70 each time. Moreover, the pKd in assay [6], in assay [7], in assay [8], in assay [9], in assay [10] and in [11] was < 3.70 each time.

For the origin of these results see PMC10814857, “Functional Classification and Interaction Selectivity Landscape of the Human SH3 Domain Superfamily” (Cells, 2024).
